What was measured:
[1] = Stability tests on compound starting materials (HPLC related substances); type: physicochemical; conditions: for (Z-A) impurity A isopilocarpine / (Z-B) impurity B pilocarpic acid / (Z-C) impurity C isopilocarpic acid / Maximum single impurity / Total impurity: starting material
Method: Samples: compound 1, compound 2 and pilocarpine hydrochloride starting material solid particles.
High-temperature test: 1 g of each of compound 1, compound 2 and pilocarpine hydrochloride starting materials were taken and placed in an open container inside a constant temperature device at 40° C.; samples were taken at time points of day 0 and day 5, and then tested according to the key stability examination items. The stability of the active pharmaceutical ingredient itself and the trend of changes in stability under the conditions of influencing factor tests were observed.
Strong light irradiation test: 1 g of each of compound 1, compound 2 and pilocarpine hydrochloride starting materials were taken and placed in an open container inside a light irradiation box, with the illumination set at 4500 lx±500 lx; samples were taken at time points of day 0 and day 5, and then tested according to the key stability examination items.
High-humidity test: 1 g of each of compound 1, compound 2 and pilocarpine hydrochloride starting materials was taken and placed in an open container inside a constant humidity closed container at 25° C. and with a relative humidity of 75%±5%; samples were taken at day 0 and day 5, and then tested according to the requirements of the key stability examination items.
According to the records in the European Pharmacopoeia (EP), the key related substances to be examined for pilocarpine include: impurity A isopilocarpine (Z-A), impurity B pilocarpic acid (Z-B), and impurity C isopilocarpic acid (Z-C). The samples taken at different time points from the above high-temperature test, strong light irradiation test and high-humidity test were separately tested using high-performance liquid chromatography to observe the trend of changes in stability under the conditions of the influencing factor tests.
The related substances were determined according to the high-performance liquid chromatography (General Chapter 0512, Chinese Pharmacopoeia, Volume IV, 2020 Edition).
Test sample solution: an appropriate amount of each test sample was precisely weighed, dissolved in water, and diluted to prepare a solution containing 1 mg of test sample per 1 mL.
Chromatographic conditions: octadecyl bonded silica gel was used as a filler [kromasil 100-5-C18 column (4.0 mm×[…]) or a chromatographic column with equivalent performance], 0.679 g/L tetrabutylammonium dihydrogen phosphate-methanol-acetonitrile (885:55:60) (adjusted to pH 7.7 with dilute aqueous ammonia) was used as mobile phase A, and acetonitrile-water (80:20) was used as mobile phase B; gradient elution was performed according to Table 6-1, with a column temperature of 30° C., a flow rate of 1.0 mL/min, a detection wavelength of 220 nm, and a sample injection volume of 20 μL.

[2] = Determination of salt-forming ratios of pilocarpine salt formulations (HPLC); type: physicochemical
Method: The determination of the salt-forming ratios of the pilocarpine salt formulations was performed using high-performance liquid chromatography with the following conditions: chromatographic column: C18 column; sample injection volume: 10 μL; mobile phase: K2HPO4 (adjusted to pH 6.50±0.1 with phosphoric acid)-methanol-acetonitrile (63:2:35); flow rate: 0.7 mL/min; column temperature: 30° C.; detection wavelength: 215 nm; […] determination was performed, and the salt-forming ratios were calculated according to the peak areas of free acid radicals and pilocarpine.
The samples were separately injected to determine the salt-forming ratios of different compound 1 formulations. Meanwhile, the salt-forming ratios of the compound 1 formulation solutions with different pH values under different conditions were determined using the above stability examination methods.
The samples were separately injected to determine the salt-forming ratios of different compound 2 formulations. Meanwhile, the salt-forming ratios of the compound 2 formulation solutions with different pH values under different conditions were determined using the above stability examination methods.

Structure (SMILES): CC[C@@H]1C(=O)OC[C@@H]1Cc1cncn1C [Compound 2]
- impurity increasing rate compared to pilocarpine hydrochloride starting material ([1]; 40° C. and high light irradiation): comparable to those of the pilocarpine hydrochloride starting material
- impurity increasing rate compared to pilocarpine hydrochloride starting material ([1]; 5 days, high humidity (RH 75%)): significantly slower than those of the pilocarpine hydrochloride
- (Z-A) impurity A isopilocarpine ([1]; 40° C.-5 days): 0.338%
- (Z-B) impurity B pilocarpic acid ([1]; 40° C.-5 days): 0.072%
- (Z-C) impurity C isopilocarpic acid ([1]; 40° C.-5 days): 0%
- Maximum single impurity ([1]; 40° C.-5 days): 0%
- Total impurity ([1]; 40° C.-5 days): 0.353%
- (Z-A) impurity A isopilocarpine ([1]; Day 0): 0.307%
- (Z-B) impurity B pilocarpic acid ([1]; Day 0): 0%
- (Z-C) impurity C isopilocarpic acid ([1]; Day 0): 0%
- Maximum single impurity ([1]; Day 0): 0%
- Total impurity ([1]; Day 0): 0.307%
- (Z-A) impurity A isopilocarpine ([1]; Light-5 days (4500 lx)): 0.333%
- (Z-B) impurity B pilocarpic acid ([1]; Light-5 days (4500 lx)): 0.046%
- (Z-C) impurity C isopilocarpic acid ([1]; Light-5 days (4500 lx)): 0%
- Maximum single impurity ([1]; Light-5 days (4500 lx)): 0%
- Total impurity ([1]; Light-5 days (4500 lx)): 0.339%
- (Z-A) impurity A isopilocarpine ([1]; RH 75%-5 days, 25° C.): 0.311%
- (Z-B) impurity B pilocarpic acid ([1]; RH 75%-5 days, 25° C.): 0.116%
- (Z-C) impurity C isopilocarpic acid ([1]; RH 75%-5 days, 25° C.): 0%
- Maximum single impurity ([1]; RH 75%-5 days, 25° C.): 0%
- Total impurity ([1]; RH 75%-5 days, 25° C.): 0.427%
- salt-forming ratios of the formulations ([2]; different conditions): substantially stable
- Salt-forming ratio ([2]; formulation pH 4.3, 0 d): 1.25
- Salt-forming ratio ([2]; formulation pH 4.3, 40° C./5 d): 1.14
- Salt-forming ratio ([2]; formulation pH 4.3, 40° C./10 d): 1.15
- Salt-forming ratio ([2]; formulation pH 4.3, 60° C./5 d): 1.17
- Salt-forming ratio ([2]; formulation pH 4.3, 60° C./10 d): 1.23
- Salt-forming ratio ([2]; formulation pH 4.3, Light irradiation/5 d): 1.12
- Salt-forming ratio ([2]; formulation pH 4.3, Light irradiation/10 d): 1.13
- Salt-forming ratio ([2]; formulation pH 4.5, 0 d): 1.00
- Salt-forming ratio ([2]; formulation pH 4.5, 40° C./5 d): 1.02
- Salt-forming ratio ([2]; formulation pH 4.5, 40° C./10 d): 1.01
- Salt-forming ratio ([2]; formulation pH 4.5, 60° C./5 d): 1.02
- Salt-forming ratio ([2]; formulation pH 4.5, 60° C./10 d): 1.01
- Salt-forming ratio ([2]; formulation pH 4.5, Light irradiation/5 d): 1.01
- Salt-forming ratio ([2]; formulation pH 4.5, Light irradiation/10 d): 1.01
- Salt-forming ratio ([2]; formulation pH 4.8, 0 d): 1.00
- Salt-forming ratio ([2]; formulation pH 4.8, 40° C./5 d): 1.01
- Salt-forming ratio ([2]; formulation pH 4.8, 40° C./10 d): 1.00
- Salt-forming ratio ([2]; formulation pH 4.8, 60° C./5 d): 0.98
- Salt-forming ratio ([2]; formulation pH 4.8, 60° C./10 d): 0.96
- Salt-forming ratio ([2]; formulation pH 4.8, Light irradiation/5 d): 1.01
- Salt-forming ratio ([2]; formulation pH 4.8, Light irradiation/10 d): 1.01
- Salt-forming ratio ([2]; formulation pH 5.0, 0 d): 1.00
- Salt-forming ratio ([2]; formulation pH 5.0, 40° C./5 d): 1.00
- Salt-forming ratio ([2]; formulation pH 5.0, 40° C./10 d): 0.99
- Salt-forming ratio ([2]; formulation pH 5.0, 60° C./5 d): 0.95
- Salt-forming ratio ([2]; formulation pH 5.0, 60° C./10 d): 0.92
- Salt-forming ratio ([2]; formulation pH 5.0, Light irradiation/5 d): 1.00
- Salt-forming ratio ([2]; formulation pH 5.0, Light irradiation/10 d): 1.00
- Salt-forming ratio ([2]; formulation pH 5.5, 0 d): 0.99
- Salt-forming ratio ([2]; formulation pH 5.5, 40° C./5 d): 0.98
- Salt-forming ratio ([2]; formulation pH 5.5, 40° C./10 d): 0.97
- Salt-forming ratio ([2]; formulation pH 5.5, 60° C./5 d): 0.90
- Salt-forming ratio ([2]; formulation pH 5.5, 60° C./10 d): 0.85
- Salt-forming ratio ([2]; formulation pH 5.5, Light irradiation/5 d): 1.00
- Salt-forming ratio ([2]; formulation pH 5.5, Light irradiation/10 d): 1.00
